# Counter-ions that a name gives are not always drawn.
# Target: CK2A1 (CK2α/β) (Homo sapiens, UniProt P68400)
# Assay: CK2 kinase assay, CK2A1 (CK2α/β)
# Assay type: biochemical
# Conditions: Table A; read-out: CK2A1 (CK2α/β) (IC50)
# Sequence of CK2A1 (CK2α/β) (P68400 whole entry, species assumed): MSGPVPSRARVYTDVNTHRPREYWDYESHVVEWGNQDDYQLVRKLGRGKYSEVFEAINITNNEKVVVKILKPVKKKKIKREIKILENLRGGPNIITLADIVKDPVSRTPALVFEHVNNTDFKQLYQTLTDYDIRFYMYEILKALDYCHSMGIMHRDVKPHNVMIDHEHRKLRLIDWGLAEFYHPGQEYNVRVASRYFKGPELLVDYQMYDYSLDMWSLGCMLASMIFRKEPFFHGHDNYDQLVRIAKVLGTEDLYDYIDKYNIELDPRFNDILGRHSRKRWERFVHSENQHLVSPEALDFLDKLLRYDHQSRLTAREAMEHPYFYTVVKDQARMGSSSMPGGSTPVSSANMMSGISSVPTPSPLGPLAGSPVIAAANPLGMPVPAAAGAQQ
# Sequence of CK2A1 (CK2α/β) (P67870 whole entry partner, species assumed): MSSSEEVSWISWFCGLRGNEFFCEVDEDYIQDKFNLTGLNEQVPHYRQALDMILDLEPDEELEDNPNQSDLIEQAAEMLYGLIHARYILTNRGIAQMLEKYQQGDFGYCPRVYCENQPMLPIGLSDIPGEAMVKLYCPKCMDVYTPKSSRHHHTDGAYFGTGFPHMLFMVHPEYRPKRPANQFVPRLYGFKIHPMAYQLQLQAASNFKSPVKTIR
row,SMILES,IC50
1,"CCNc1nc(Nc2cc(C#N)cc(N3CC[C@@H](NC(=O)OC)[C@H](OC(=O)CCCCN)C3)c2Cl)nn2c(C#N)cnc12 [Example 816, (3R,4R)-1-(2-chloro-5-cyano-3-((7-cyano-4-(ethylamino)imidazo[2,1-f][1,2,4]triazin-2-yl)amino)phenyl)-4-((methoxycarbonyl)amino)piperidin-3-yl 5-aminopentanoate hydrochloride]",5.2 nM
2,"CCNc1nc(Nc2cc(C#N)cc(N3CC[C@@H]4[C@@H](C3)OC(=O)N4[C@H]3CCOC3)c2Cl)nn2c(C#N)cnc12 (single isomer, unassigned) [Example 841]",2.31 nM
3,"N#Cc1cc(Nc2nc(NC3CC3)c3ncc(C#N)n3n2)c(Cl)c(N2CCN(C3CN(C(=O)C4CC4)C3)CC2)c1 [Example 485, 2-({2-chloro-5-cyano-3-[4-(1-cyclopropanecarbonyl-azetidin-3-yl)piperazin-1-yl]phenyl}amino)-4-(cyclopropylamino)imidazo[2,1-f][1,2,4]triazine-7-carbonitrile]",0.77 nM
4,"CN1C[C@H]2C[C@@H]1CN2c1cc(C#N)cc(Nc2nc(NC3CC3)c3ncc(C#N)n3n2)c1Cl [Example 5, 2-((2-chloro-5-cyano-3-((1R,4R)-5-methyl-2,5-diazabicyclo[2.2.1]hept-2-yl)phenyl)amino)-4-(cyclopropylamino)imidazo [2,1-f][1,2,4]triazine-7-carbonitrile]",0.44 nM
5,"COC[C@H](O)CN1CCN(c2cc(C#N)cc(Nc3nc(NC4CC4)c4ncc(C#N)n4n3)c2Cl)CC1 [Example 606, 2-[(2-chloro-5-cyano-3-{4-[(2R)-2-hydroxy-3-methoxypropyl]piperazin-1-yl}phenyl)amino]-4-(cyclopropylamino)imidazo [2,1-f][1,2,4]triazine-7-carbonitrile]",0.72 nM
6,"N#Cc1cnc2c(NC3CC3)nc(Nc3cc(OC(F)F)cc(N4CCN(C5COC5)CC4)c3Cl)nn12 [Example 557, 2-((2-chloro-5-(difluoromethoxy)-3-(4-(oxetan-3-yl)piperazin-1-yl)phenyl)amino)-4-(cyclopropylamino)imidazo[2,1-f][1,2,4]triazine-7-carbonitrile]",2.05 nM
7,"COCCC(=O)N1CC(N2CCN(c3cc(C#N)cc(Nc4nc(NC5CC5)c5ncc(C#N)n5n4)c3Cl)CC2)C1 [Example 482, 2-[(2-chloro-5-cyano-3-{4-[1-(3-methoxypropanoyl)azetidin-3-yl]piperazin-1-yl}phenyl)amino]-4-(cyclopropylamino)imidazo[2,1-f][1,2,4]triazine-7-carbonitrile]",1.52 nM
8,"CC(CCO)c1cc(C#N)cc(Nc2nc(NC3CC3)c3ncc(C#N)n3n2)c1Cl (centres unmarked) [Example 574, 2-((2-chloro-5-cyano-3-(4-hydroxybutan-2-yl)phenyl)amino)-4-(cyclopropylamino)imidazo[2,1-f][1,2,4]triazine-7-carbonitrile]",0.44 nM
9,"CC(=O)N[C@@H]1CCN(c2cc(C#N)cc(Nc3nc(NC4CC4)c4ncc(C#N)n4n3)c2Cl)C[C@H]1O (racemic) [Example 172, (+/−)-N-((3R,4R)-1-(2-chloro-5-cyano-3-((7-cyano-4-(cyclopropylamino)imidazo[2,1-f][1,2,4]triazin-2-yl)amino)phenyl)-3-hydroxypiperidin-4-yl)acetamide]",0.51 nM
10,"CN1CCC2CN(c3cc(C#N)cc(Nc4nc(NC5CC5)c5ncc(C#N)n5n4)c3Cl)CCC21 (centres unmarked) [Example 443, 2-((2-chloro-5-cyano-3-(1-methylhexahydro-1H-pyrrolo[3,2-c]pyridin-5(6H)-yl)phenyl)amino)-4-(cyclopropylamino)imidazo[2,1-f][1,2,4]triazine-7-carbonitrile]",2.93 nM
11,"CNC(=O)CN1CCC(c2cc(C#N)cc(Nc3nc(NC4CC4)c4ncc(C#N)n4n3)c2Cl)CC1 [Example 642, 2-(4-(2-chloro-5-cyano-3-((7-cyano-4-(cyclopropylamino)imidazo[2,1-f][1,2,4]triazin-2-yl)amino)phenyl)piperidin-1-yl)-N-methylacetamide]",0.76 nM

# Source: US9273057B2 (Bristol-Myers Squibb Company, priority 2012, dated 2016)
